Key:
[1] = test system: TALL-104 cells; assay: Cytokine profiling of cell culture supernatant (Luminex 200), TALL-104; format: cell-based, human
Method: Cells were plated at 3.5×10^4 cells in a 48-well plate (Thermo Fisher Scientific, Waltham, MA, USA) in complete medium and incubated at 37° C. with 5% CO2. At 24 hours after plating, almost all the tumor cells were adherent to the bottom of the flask and the complete medium was replaced with the drug-containing medium. […] On the day of analysis, samples were thawed and centrifuged to remove cellular debris.
(§1) Human cell line culture supernatants were analyzed using an R&D systems Human Premixed Multi-Analyte Kit (R&D Systems, Inc., Minneapolis, MN, USA) and a Luminex 200 (RRID: SCR_018025) Instrument (LX200-XPON-RUO, Luminex Corporation, Austin, TX, USA) according to the manufacturer's instructions. Sample levels of TNF-α, 4-1BB/TNFRSF9/CD137, IL-8/CXCL8, Ferritin, IFN-β, IL-10, CCL2/JE/MCP-1, VEGF, CXCL13/BLC/BCA-1, IFN-γ, CCL20/MIP-3 α, CCL3/MIP-1 α, CCL22/MDC, CCL4/MIP-1 β, Fas Ligand/TNFSF6, IL-17/IL-17A, IL-2, BAFF/BLyS/TNFSF13B, GM-CSF, CXCL5/ENA-78, TRANCE/TNFSF11/RANK L, CXCL9/MIG, G-CSF, IFN-γ R1/CD119, VEGFR3/Flt-4, C-Reactive Protein/CRP, CXCL11/I-TAC, IL-21, CXCL14/BRAK, IL-6, Fas/TNFRSF6/CD95, TRAIL R3/TNFRSF10C, IL-4, CCL5/RANTES, PD-L1/B7-H1, CCL7/MCP-3/MARC, Chitinase 3-like 1, CXCL10/IP-10/CRG-2, IL-1 β/IL-1F2, IL-7, Prolactin, CCL8/MCP-2, TRAIL R2/TNFRSF10B, M-CSF, IL-15, Granzyme B, IFN-α, TREM-1, IL-12/IL-23 p40, TRAIL/TNFSF10, CCL11/Eotaxin, and IL-18/IL-1F4. Quantitative analysis with 6 standards and a minimum of 50 counts per bead region was used with the Luminex to generate analyte values reported as picograms/milliliter (pg/mL). Sample concentrations less than the lower limit of detection for each particular analyte were recoded as the lower limit value divided by ten. Sample concentrations above the upper limit of detection for a particular analyte were recoded as the upper limit of detection.

[2] = Patient plasma cytokine profiling (Luminex 200), Phase 1 trial; format: in vivo, human
Method: as §1, with “Sample concentrations above the upper limit of detection for a particular analyte were recoded as the upper limit of detection.” left out

[3] = test system: refractory solid tumors of multiple tissue origins; assay: Phase 1 clinical trial of elraglusib (NCT03678883), PFS and OS; format: in vivo, human; details: patients analysed, n=19, multiple tumor types
Method: Archival tumor specimens and peripheral blood samples were collected from patients enrolled in the Phase I study of Elraglusib (9-ING-41), a small molecule selective glycogen synthase kinase-3 beta (GSK-3b) inhibitor, as monotherapy or combined with cytotoxic regimens in patients with relapsed or refractory hematologic malignancies or solid tumors (Clinicaltrials.gov NCT03678883) who received treatment at the Lifespan Cancer Institute (Providence, RI, USA). The study was conducted in accordance with the Declaration of Helsinki and the International Conference on Harmonization Good Clinical Practice guidelines. The study protocol was approved by the Institutional Review Board (IRB) of Rhode Island Hospital under protocol number 1324888-120. The patients also participated in a Lifespan Cancer Institute research protocol designed to investigate molecular and genetic features of tumors and mechanisms of resistance (Rhode Island Hospital IRB protocol number 449060-38). All patients provided written informed consent.

[4] = test system: NK-92 cells; assay: Microarray gene expression analysis, NK-92; format: cell-based, human; details: IC-50 concentration (1 μM), 24 hours; FC cutoff >1.5, <−1.5, p<0.05
Method: (§2) A total of 0.5×10^6 tumor cells (HCT-116, HT-29, KM12C) were plated in a 6-well plate and allowed to adhere overnight before 24-hour treatment as indicated. 1×10^6 immune cells (NK92, TALL-104) were plated and treated with elraglusib as indicated for 24 hours. RNA was isolated from cell pellets in batches of 6 using an RNeasy Plus Mini Kit (Cat #74134, Qiagen, Hilden, Germany). Acceptable RNA concentration and quality were verified with Nanodrop and Bioanalyzer measurements. GeneChip™ Human Transcriptome Array 2.0 assays were conducted according to manufacturer instructions in two batches using randomized samples to limit batch effects (Cat #902162, Applied Biosystems, Waltham, MA, USA). Applied Biosystems Transcriptomic Analysis Console (TAC) software (RRID: SCR_016519) was used to calculate fold changes in gene expression relative to the untreated control cells. Values were considered statistically significant for p values <0.05.

[5] = test system: TALL-104 cells; assay: Microarray gene expression analysis, TALL-104; format: cell-based, human
Method: as §2

[6] = test system: SW480 tumor cells; assay: Multicolor co-culture of SW480 tumor cells and donor-derived CD8+ T cells, EthD-1 dead cells; format: cell-based, human; details: for percentage of dead cells (average, normalized): then co-culture with donor-derived CD8+ T cells; for percentage of dead cells out of total cells (average, normalized): co-culture with donor-derived CD8+ T cells, 24 hours
Method: An Easy Step Human CD8+ T Cell Isolation Kit was used to isolate CD8+ T cells from a donor PBMC sample via negative selection (Cat #, 17913, Stem Cell Technologies, Vancouver, Canada).
10,000 HCT-116, SW480, or HT-29 cells were plated per well in a clear-bottom, black-walled 48-well tissue culture plate and were allowed to adhere overnight. Cells were subsequently treated with DMSO, 5 μM or 10 μM elraglusib, and/or 10,000 TALL-104 or NK-92 cells (for an effector-to-tumor ratio of 1:1) for 24 hours. CRC cells were labeled using CellTracker™ Green CMFDA (5-chloromethylfluorescein diacetate), immune cells (NK-92, TALL-104) were labeled using CellTracker™ Blue CMAC Dye (7-amino-4-chloromethylcoumarin), and ethidium homodimer-1 (EthD-1) was used as a marker of cell death (Invitrogen, Waltham, MA). 10× images were captured using a Nikon Ti-U Inverted Fluorescence Microscope and NIS-Elements F Package imaging software 3.22.00 Build 710 (Nikon Instruments Inc, USA). The number of red/green color cells in random fields was determined using thresholding and particle analysis in the Fiji modification (RRID: SCR_002285) of ImageJ and expressed as a dead/live cell ratio. Normalization was carried out by subtracting the percentage of cell death due to drug or vehicle control (DMSO) only from the percentage of dead cells observed in the co-culture of tumor and immune cells treated with the drug. At least 100 cells were evaluated per sample, with 3 independent replicates. Statistical analysis was done using GraphPad Prism 9 (RRID: SCR_002798).

With `Cn1cc(C2=C(c3coc4ccc(F)cc34)C(=O)NC2=O)c2cc3c(cc21)OCO3` [elraglusib, 3-(5-fluorobenzofuran-3-yl)-4-(5-methyl-5H-[1,3]dioxolo[4,5-f]indol-7-yl)-1H-pyrrole-2,5-dione] the “IFN-γ concentration in supernatant” value ([1]; 1 μM, 48 hours) was “increases”, the “TRAIL concentration in supernatant” value ([1]; 1 μM, 48 hours) was “increases” and the “granzyme B concentration in supernatant” value ([1]; 1 μM, 48 hours) was “increases”. For the same molecule, the “IFN-γ in cell culture supernatant” value ([1]; 24 hours treatment vs DMSO) was “significant increase in IFN-γ”, the “plasma cytokines, chemokines and growth factors (many of the analytes) vs baseline” value ([2]; 8- and 24-hours post-dose) was “upregulated” and the “plasma expression of many of the analytes in the panel” value ([2]; patients receiving a 7 mg/kg dose, 8- and 24-hour post-dose) was “increased expression”. The “median OS” value [3] was 101 days, the “median PFS” value [3] was 75.9 days and the “differentially expressed genes post-treatment” value [4] was 61. The “CCL3 gene expression fold change” value ([5]; 24 hours vs DMSO) was 1.52 FC, the “KIF7 gene expression fold change” value ([5]; 24 hours vs DMSO) was 1.56 FC and the “PTPN3 gene expression fold change” value ([5]; 24 hours vs DMSO) was −1.56 FC. For the same molecule, the “differentially expressed genes post-treatment” value ([5]; IC-50 concentration (1 μM), 24 hours, FC cutoff >1.5, <−1.5, p<0.05) was 64, the “percentage of dead cells (average, normalized)” value ([6]; 10 μM for 24 hours) was 70% and the “percentage of dead cells out of total cells (average, normalized)” value ([6]; 5 μM) was 65%. The “percentage of dead cells out of total cells (average, normalized)” value ([6]; 10 μM) was 75%, the “tumor cell death in SW480 monocultures” value ([6]; drug only, no immune cells) was “limited tumor cell death” and the “percentage of dead cells (average, normalized)” value ([6]; tumor cells pre-treated with 5 μM for 24 hours) was 65%.

Source: patent US20260256741A1, “ANTICANCER MALEIMIDE DERIVATIVES FOR USE WITH IMMUNE CHECKPOINT BLOCKADE” (BROWN UNIVERSITY, priority 2022, published 2026)
